TGI and GI50 data for 22 compounds are collected here from PubChem BioAssay (NCI).

Among the test systems are CAKI-1 renal; DLD-1 colon; EKVX NSCLC; HCT-116 colon; LXFL 529 NSCLC; NCI-H226 lung; SK-MEL-28 melanoma; UO-31 renal; BT-549 breast; NCI/ADR-RES ovarian.
Common to all, as to assay: DTP human tumour cell line panel, 48 h

Several values for one entry are separate records, joined by “and”; a condition that tells them apart may be missing. Equal entries are not always repeated.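 Compound exposure: 48 hours, 5 concentrations, 96-well plates. At the GI50, growth is halved. TGI: concentration producing complete growth inhibition.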 A value given as a limit tells only on which side of the number the result lay.

With `O=C(O)CSc1n[nH]c(/C=C/c2ccccc2)n1`, the TGI in the test on CAKI-1 renal, in the test on DLD-1 colon, with EKVX NSCLC, with HCT-116 colon, in the test on LXFL 529 NSCLC and with NCI-H226 lung was over 100 µM in each case. In addition, the TGI in the test with SK-MEL-28 melanoma and in the test on UO-31 renal was over 100 µM each time.

Turning to `OCC(O)CC[CH2][Sn]([c]1ccccc1)([c]1ccccc1)[c]1ccccc1` (stereo not given), the GI50 (in general, the concentration that inhibits growth by half) is 8.12 µM with CAKI-1 renal; 16.5 µM in the test with DLD-1 colon; 16.5 µM with EKVX NSCLC; 10.8 µM in the test on HCT-116 colon; 12.3 µM in the test on LXFL 529 NSCLC; 19 µM in the test with NCI-H226 lung. Also, the GI50 in the test with UO-31 renal is 14.8 µM. Besides, the TGI (as a rule, the concentration at which net growth stops) in the test on CAKI-1 renal was found to be 21.5 µM; in the test on DLD-1 colon it was 32 µM; with EKVX NSCLC it was 31.7 µM; with HCT-116 colon it was 22.7 µM; in the test on LXFL 529 NSCLC, 24.9 µM; in the test on NCI-H226 lung, 70.8 µM. Further, the TGI in the test on UO-31 renal turned out to be 28.4 µM.

In the case of `COC(=O)N1[C@H]2Cc3c(OC)c(C)c(OC)c(OC)c3[C@@H]1/C(=C\c1cc(OC)c(OC)c(C)c1OC)N(Cc1ccccc1)C2=O`, the TGI in the test with CAKI-1 renal is over 100 µM; in the test with DLD-1 colon it was over 100 µM; with EKVX NSCLC it was over 100 µM; in the test with HCT-116 colon, over 100 µM; in the test with LXFL 529 NSCLC, over 100 µM; with NCI-H226 lung, 11.7 µM. The TGI in the test with SK-MEL-28 melanoma and with UO-31 renal was over 100 µM in each case.

With `COc1cc(OC)cc(N2CCC(c3c(N)nc(N)nc3Cl)CC2)c1`, the TGI with CAKI-1 renal, with DLD-1 colon, in the test on EKVX NSCLC, in the test with LXFL 529 NSCLC, in the test with SK-MEL-28 melanoma and in the test with UO-31 renal was over 100 µM throughout.

Take `CC(NC(=O)c1ccccc1)C(=O)N(Cc1ccccc1)Cc1ccccc1` (stereo not given): the TGI with CAKI-1 renal is over 100 µM; in the test on DLD-1 colon it was over 100 µM; in the test on HCT-116 colon, 66 µM; in the test with LXFL 529 NSCLC, 53.4 µM; in the test with NCI-H226 lung it was 56.3 µM; in the test on SK-MEL-28 melanoma, 97.6 µM. In the test with UO-31 renal, this compound showed a TGI of 83.9 µM.

Regarding `O=c1cc2n(c(=O)[nH]1)C1OC(C(O)C1O)[C@@H]2CCO` (stereo not given in full), the TGI in the test on CAKI-1 renal, with DLD-1 colon, in the test with EKVX NSCLC, in the test on LXFL 529 NSCLC, in the test with SK-MEL-28 melanoma and in the test on UO-31 renal was over 100 µM throughout.

For the compound `CC(=O)[CH-]C(=O)c1ccccc1.CC(=O)[CH-]C(=O)c1ccccc1.[Nd+3].[OH-].[OH3+]`, the GI50 in the test on CAKI-1 renal, in the test on DLD-1 colon, in the test on HCT-116 colon, in the test on LXFL 529 NSCLC, in the test with NCI-H226 lung and in the test on SK-MEL-28 melanoma was over 100 µM in each case. In the test on UO-31 renal, the GI50 was over 100 µM. The TGI in the test on CAKI-1 renal, with DLD-1 colon, in the test on HCT-116 colon, in the test with LXFL 529 NSCLC, with NCI-H226 lung and in the test on SK-MEL-28 melanoma was over 100 µM each time. This compound displayed a TGI in the test with UO-31 renal of over 100 µM.

In the case of `COc1ccc(CNc2cc(OC)cc(OC)c2)cc1`, the GI50 is > 100 µM and 34.6 µM with CAKI-1 renal; 97.7 µM and 42.6 µM in the test on DLD-1 colon. Moreover, the TGI with CAKI-1 renal, in the test with DLD-1 colon, in the test on EKVX NSCLC, with HCT-116 colon, in the test on LXFL 529 NSCLC and in the test on NCI-H226 lung was over 100 µM each time. Also, the TGI in the test with SK-MEL-28 melanoma was over 100 µM; with UO-31 renal, > 100 µM and 97.8 µM.

Regarding `CN(C)CCC1(C2=CCCC2)CC/C(=C\c2ccc3c(c2)OCO3)C1=O` (stereo not given), the TGI in the test on DLD-1 colon amounted to 38.3 µM; in the test on EKVX NSCLC it was 29.3 µM; in the test with HCT-116 colon it was 26.9 µM; in the test on LXFL 529 NSCLC it was 25.5 µM; in the test on SK-MEL-28 melanoma it was 27.4 µM; in the test with UO-31 renal it was 20.2 µM.

With `COC1/C=C/O[C@@]2(C)Oc3c(C)c(O)c4c(O)c(cc(O)c4c3C2=O)NC(=O)/C(C)=C\C=C\[C@H](C)C(O)[C@@H](C)[C@@H](O)[C@@H](C)[C@H](OC(C)=O)[C@@H]1C` (stereo not given in full), the GI50 in the test with BT-549 breast is 29 µM; in the test with CAKI-1 renal, 16.9 µM; with EKVX NSCLC, 14.2 µM and 58.6 µM; with HCT-116 colon, 12.2 µM and 12.5 µM; in the test with NCI-H226 lung, 39.6 µM and 59.3 µM; with NCI/ADR-RES ovarian it was 24 µM. Besides, the GI50 in the test with UO-31 renal is 12 µM. For the same compound, the TGI was 37.7 µM and 84.4 µM in the test on BT-549 breast; 30.8 µM and 98.6 µM in the test on CAKI-1 renal; 30.4 µM in the test with DLD-1 colon; 27.8 µM and 136 µM in the test with EKVX NSCLC; 25.4 µM and 26.1 µM in the test on HCT-116 colon; 179 µM in the test on NCI-H226 lung. Moreover, the TGI was 59.7 µM and 86 µM in the test with NCI/ADR-RES ovarian; 52 µM and 57.3 µM in the test on SK-MEL-28 melanoma; 24.4 µM and 96.9 µM in the test with UO-31 renal.

Regarding `CC(C)(C)c1nc2c(o1)C(=Nc1ccccc1)c1ccccc1C2=O`, the TGI with CAKI-1 renal amounted to 64.9 µM; in the test with DLD-1 colon it was 38.1 µM; in the test on EKVX NSCLC, 41 µM; with HCT-116 colon, 12.8 µM; in the test on LXFL 529 NSCLC, 50.1 µM; with NCI-H226 lung it was 23.5 µM. The TGI in the test on SK-MEL-28 melanoma is 10.8 µM; in the test with UO-31 renal, 24.3 µM.

Take `CCc1nc2c(O)ccc(O)c2nc1C`: the TGI in the test on CAKI-1 renal was determined as 33.2 µM; in the test on DLD-1 colon, 9.35 µM; in the test with EKVX NSCLC, 31.1 µM; with HCT-116 colon, 20.9 µM; in the test with LXFL 529 NSCLC, 15.8 µM; in the test with NCI-H226 lung it was 29.9 µM. Further, the TGI with SK-MEL-28 melanoma is 34.4 µM; with UO-31 renal, 33.5 µM.

As for `COC(=O)OCC1OC(N2C(=O)NC(=O)C(I)C2N=[N+]=[N-])CC1OC(=O)OC` (stereo not given), the TGI with CAKI-1 renal, with DLD-1 colon, in the test with HCT-116 colon, in the test with LXFL 529 NSCLC, in the test on NCI-H226 lung and with SK-MEL-28 melanoma was over 100 µM in each case. In addition, the TGI in the test with UO-31 renal was over 100 µM.

Consider `CN(C)CCNC(=O)c1ccc2ccc3cccnc3c2n1`, for which the TGI in the test on CAKI-1 renal was over 85.5 µM; in the test with DLD-1 colon, over 84.4 µM; in the test on EKVX NSCLC, 48.3 µM; with HCT-116 colon, 27.2 µM; in the test on LXFL 529 NSCLC, over 100 µM; in the test on NCI-H226 lung, 39.6 µM. In addition, the TGI in the test on SK-MEL-28 melanoma is over 61.6 µM; in the test with UO-31 renal, 47.9 µM.

Take `COc1nc(OC)c2c(=O)oc(-c3ccccc3)cc2n1`: the TGI in the test on CAKI-1 renal, with EKVX NSCLC, in the test with HCT-116 colon, in the test on LXFL 529 NSCLC, with NCI-H226 lung and with SK-MEL-28 melanoma was over 100 µM throughout. For the same compound, the TGI in the test with UO-31 renal is over 100 µM.

Regarding `O=C(NC1CCCCC1)c1c(O)[nH]c(=S)[nH]c1=O`, the TGI with CAKI-1 renal, with DLD-1 colon, in the test on HCT-116 colon, in the test with LXFL 529 NSCLC, with NCI-H226 lung and with SK-MEL-28 melanoma was over 100 µM throughout. For the same compound, the TGI with UO-31 renal is over 100 µM.

Regarding `CCOC(C)OCC#CCCBr` (stereo not given), the TGI in the test on CAKI-1 renal, in the test on DLD-1 colon, in the test on EKVX NSCLC, in the test on HCT-116 colon, with LXFL 529 NSCLC and in the test on UO-31 renal was over 100 µM in each case.

For `O=C1CCC2(c3ccc(F)cc3)Nc3ccccc3N12` (stereo not given), the TGI in the test with CAKI-1 renal, with DLD-1 colon, in the test with EKVX NSCLC, with LXFL 529 NSCLC, with NCI-H226 lung and with SK-MEL-28 melanoma was over 100 µM each time. The compound also registered a TGI in the test with UO-31 renal of over 100 µM.

As for `O=[N+]([O-])c1ccccc1S(=O)c1ccccc1` (stereo not given), the TGI in the test with CAKI-1 renal, in the test on DLD-1 colon, in the test with HCT-116 colon, in the test with LXFL 529 NSCLC, in the test on NCI-H226 lung and in the test on SK-MEL-28 melanoma was over 100 µM each time. In the test on UO-31 renal, the TGI is over 100 µM.

Turning to `O=CC1=CCCC2(C1)OCCO2`, the TGI in the test with CAKI-1 renal, with DLD-1 colon, in the test with EKVX NSCLC, in the test with HCT-116 colon, with LXFL 529 NSCLC and in the test with SK-MEL-28 melanoma was over 100 µM in each case. Moreover, in the test on UO-31 renal, the TGI was over 100 µM.

Regarding `O=C(Cn1ccnc1[N+](=O)[O-])N(CCO)CCO`, the TGI in the test with BT-549 breast was over 250 µM; in the test with CAKI-1 renal, over 1250 µM; with DLD-1 colon, over 1250 µM; in the test with EKVX NSCLC it was over 1250 µM; in the test with HCT-116 colon it was over 1250 µM; in the test with NCI-H226 lung it was over 1250 µM. Also, the TGI with NCI/ADR-RES ovarian, in the test with SK-MEL-28 melanoma and in the test with UO-31 renal was over 1250 µM throughout. For the same compound, the GI50 in the test on CAKI-1 renal, in the test on EKVX NSCLC, in the test with HCT-116 colon, with NCI-H226 lung, in the test on NCI/ADR-RES ovarian and with SK-MEL-28 melanoma was over 1250 µM throughout. Moreover, in the test with UO-31 renal, the GI50 was over 1250 µM.

Take `CC(=O)O[C@]1(C(C)=O)CC[C@H]2[C@@H]3C[C@H](C)C4=CC(=O)C=C[C@]4(C)[C@@]3(F)[C@@H](O)C[C@@]21C`: the TGI with CAKI-1 renal, in the test on DLD-1 colon, with EKVX NSCLC, in the test on HCT-116 colon, in the test on NCI-H226 lung and in the test on SK-MEL-28 melanoma was over 100 µM each time. In the test on UO-31 renal, the TGI stood at 98.9 µM.
